Measurements: the SangsterLogP compilation

Structure (SMILES) | logP
COc1cc2c(cc1OC)SC(C)(C)C=C2 | 3.52
CC1(C)C=Cc2cc(Cl)c3c(c2O1)CCC(C)(C)O3 | 6.14
CC1(C)C=Cc2ccc(Cl)cc2O1 | 4.55
COc1cc2c(cc1OCC(F)(F)F)OC(C)(C)C=C2 | 4.49
Cc1c2c(cc3c1OC(C)(C)CC3)C=CC(C)(C)O2 | 6.2
CCOc1cc2c(cc1Cl)C=CC(C)(C)O2 | 4.89
Cc1ccc2c(c1)OC(C)(C)C=C2 | 4.03
CC1(C)C=Cc2c(c3c(c4c2OC(C)(C)CC4)OC(C)(C)CC3)O1 | 5.8
COc1ccc2c(c1)OC(C)(C)C=C2 | 3.46
CC1(C)C=Cc2cc(C(C)(C)C)c3c(c2O1)CCC(C)(C)O3 | 8.17
COc1ccc2c(c1)SC(C)(C)C=C2 | 4.32

Other lines, results leading:

logP | Structure (SMILES)
3.42 | CC1(C)C=Cc2ccccc2O1
4.47 | COc1c2c(cc3c1OC(C)(C)CC3)C=CC(C)(C)O2
6.89 | CCc1c2c(cc3c1OC(C)(C)C=C3)C=CC(C)(C)O2
4.79 | COc1cc2c(cc1OCC(F)(F)F)C=CC(C)(C)O2
6.97 | CCc1cc2c(c3c1OC(C)(C)CC3)OC(C)(C)C=C2
3.36 | CCOc1cc2c(cc1OC)C=CC(C)(C)O2
4.01 | CC1(C)C=Cc2c(ccc3c2CCC(C)(C)O3)O1
4.06 | CC1(C)C=Cc2cccc(Cl)c2O1
5.15 | CCOc1cc2c(cc1Br)C=CC(C)(C)O2
7.67 | CC1(C)C=Cc2c3c(c4c(c2O1)CCC(C)(C)O4)OC(C)(C)CC3
4.86 | COCCOCCOCCOc1cc2c(c3c1OC(C)(C)CC3)OC(C)(C)CC2
6.33 | CC1(C)C=Cc2cc(Br)c3c(c2O1)CCC(C)(C)O3
2.77 | COc1cc2c(cc1OC)OC(C)(C)C=C2
